Square brackets hold non-standard residues; d marks the D form. Ends that are not written are not given here. Dip = N[C@H](C(=O)O)C(c1ccccc1)c1ccccc1
Test system: A375 cells
Experiment: Confocal microscopy, internalization of fluorescence-labeled peptide
Assay type: cell-based, human
Experimental: The A375 cell line A375 (ECACC, 88113005) is a human malignant melanoma derived from patient material, and was purchased from Public Health England (PHE Culture Collections, Porton Down, Salisbury, UK). Cells were maintained as monolayer cultures in high glucose […] DMEM supplemented with 10% FBS and 1% L-glutamine, but not as antibiotics (complete media). The cell line was grown in a humidified 5% CO2 atmosphere at 37° C., and was regularly tested for the presence of mycoplasma with MycoAlert (Lonza).
Fixed cells, fluorescence-labeled peptide—Subconfluential A375 cells were seeded at 8,000 cells/well as above, and transfected on the second day using the Lipofectamine LTX with Plus transfection reagents (Invitrogen) following the manufacturer's protocol. The mitochondria were labeled using the pDsRed2-Mito, and the nucleus was labeled using the GFP-Histon2B plasmid (Imaging Platform, University of Tromsø). A day after transfection, cells were washed twice with serum-free RPMI, and treated at different concentration and incubation periods with LTX-315 Pacific Blue or LTX-328 Pacific Blue. […] Control cells were treated with unlabeled LTX-315 and also with serum-free RPMI only. After incubation, cells were fixed with 4% paraformaldehyde in PBS, and the wells were covered with Prolong Gold antifade (Invitrogen). Cells were further analyzed by use of a Leica TCS SP5 confocal microscope, with a […] objective. Pacific Blue, GFP and Ds Red were excited using UV, with 488 and 561 lasers, and fluorescence channels were sequentially detected using the following band passes: UV: 420-480 nm (with attenuation), 488: 501-550 nm and 561: 576-676 nm.

With “KAQ[Dip]QKQAW-NH2 [LTX-328, reference compound]” the internalization of peptide (3 μM, 60 min) was “not internalized” and the “internalization of Pacific Blue-labelled peptide” value (A375 cells, 3 μM and 1.5 μM) was “did not demonstrate any internalization”.

Source: US20250002854A1, “METHODS OF GENERATING POPULATIONS OF TUMOUR-INFILTRATING T CELLS” (LYTIX BIOPHARMA AS, priority 2016, published 2025)
